Results: paper PMC12049818, “Identification of NUV-244 as a PNPLA3 I148M degrading small molecule” (iScience, 2025)

Key:
PNPLA3 I148M-tagRFP = molecular target: T1, PNPLA3 I148M-tagRFP (Homo sapiens, UniProt Q9NST1, I148M); assay: Time-lapse imaging of PNPLA3 I148M-tagRFP on lipid droplets in Huh7 cells; format: cell-based; conditions: 1μM or 5μM; Huh7
T1 construct: host or cells: Huh7
T1 sequence (Q9NST1 1-481 I148M): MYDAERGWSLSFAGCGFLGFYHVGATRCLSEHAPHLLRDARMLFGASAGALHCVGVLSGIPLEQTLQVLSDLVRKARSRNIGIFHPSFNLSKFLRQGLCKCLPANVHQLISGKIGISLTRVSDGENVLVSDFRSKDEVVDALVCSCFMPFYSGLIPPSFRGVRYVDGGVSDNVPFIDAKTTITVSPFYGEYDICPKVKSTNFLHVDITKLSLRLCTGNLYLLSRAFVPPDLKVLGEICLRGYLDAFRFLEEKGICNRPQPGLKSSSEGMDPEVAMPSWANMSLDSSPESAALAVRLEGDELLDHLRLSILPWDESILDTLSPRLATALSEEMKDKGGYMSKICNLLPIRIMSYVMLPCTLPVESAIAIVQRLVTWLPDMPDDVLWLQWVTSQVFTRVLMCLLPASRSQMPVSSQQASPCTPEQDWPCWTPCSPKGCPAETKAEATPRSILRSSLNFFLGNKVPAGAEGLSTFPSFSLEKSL
Description: To evaluate the kinetics of NUV-244 mediated reduction and degradation of PNPLA3 I148M-tagRFP, we performed time-lapse studies to follow PNPLA3 I148M-tagRFP over time (Figures 5A and 5B). 1μM or 5μM NUV-244 leads to rapid onset of reduction of PNPLA3 I148M-tagRFP on lipid droplets with half maximum effect reached after approximately 2h. To evaluate if PNPLA3 I148M-tagRFP degradation is 26S proteasome dependent, 1μM Bortezomib was co-incubated with NUV-244. Proteasome inhibition prevents PNPLA3 I148M-tagRFP reduction from lipid droplets (Figures 5A and 5B). […] A recent paper identified the E3 ligase responsible for the turnover of endogenous PNPLA3, the ER associated E3 ligase BFAR.[18]
Huh7 cells expressing PNPLA3 I148M-tagRFP were seeded at 4000 cells/well in 30 μL media in 384-well imaging plates (Revvity, PhenoPlate) and stored in a 37°C incubator with 5% CO2 and 95% humidity overnight. Cells were then incubated with Bodipy diluted in growth medium (38nM final concentration) for 1h at 37°C with 5% CO2 and 95% humidity. Cells were treated with DMSO control, 1 μM or 5 μM NUV-244, with or without 1 μM Bortezomib or 5 μM MLN7243. Cells were imaged every 15 minutes over a 20-hour period using an Opera Phenix confocal spinning disc microscope system (Revvity) with a 20x water objective at 561 nm (tagRFP) and 488 nm (BODIPY). Images were analyzed using Harmony software. PNPLA3 I148M-tagRFP intensity on lipid droplets was quantified and compared between treatments.

PNPLA3 I148M = molecular target: T2, PNPLA3 I148M (Homo sapiens, UniProt Q9NST1, I148M); assay: nanoDSF thermal shift, PNPLA3 I148M protein; format: binding; conditions: ligand 25 μM
T2 sequence (Q9NST1 1-481 I148M): T1 sequence (Q9NST1 1-481 I148M)
Description: To investigate the mode of action of NUV-244, we evaluated its direct binding to the PNPLA3 I148M protein using nano differential scanning fluorimetry (nanoDSF). In this assay, compounds that bind to a target protein can lead to thermal stabilization, preventing protein denaturation, which is reflected in a shift of the protein melting curve.
Full-length wild-type PNPLA3 (Q9NST1), mutant PNPLA3 (I148M), and PNPLA2 (Q96AD5) were cloned into the pVL1393 vector with an N-terminal Flag-Tag. Proteins were expressed in SF9 cells infected at a multiplicity of infection (MOI) of 1 for 72 hours. Protein purification was performed using a two-step process. The first step involved affinity purification using M2 anti-Flag agarose beads. This was followed by gel filtration chromatography using a Superdex 200 column. Thermal melting experiments were carried out using a Prometheus NT.48 instrument (NanoTemper Technologies). Proteins were prepared in 20 mM Tris-HCl pH 7.4, 100 mM NaCl, 5 % Glycerol, 2 mM DTT and 0.2 mg/mL was used as a final concentration in 50 μL volume. For binding experiments, ligands were added to the mixture at a final concentration of 25 μM, DMSO was used as control. […] The intrinsic protein fluorescence at 330 and 350 nm was recorded. Data were analysed using Prometheus NT.48 software. Thermal shifts (ΔTm) were calculated, and Z-scores greater than 6 indicated robust stabilization. […]

[1] = tested on: Huh7 cells expressing unmodified PNPLA3 I148M; assay: Incucyte growth curves, Huh7 expressing PNPLA3 I148M; format: cell-based, human; conditions: 1μM or 5μM
Description: (§1) Huh7, Huh7 PNPLA3 I148M, Huh7 PNPLA3, Hep3b and LX-2 cells were seeded at a concentration of 1000 cells/well in 60 μl of growth medium on 384-well microtiter plates (Revvity, Waltham, MA, USA, PhenoPlate 384-well microplate, #6057308) and stored in a 37°C incubator with 5% CO2 and 95% humidity overnight. Next day cells were treated with DMSO as control (1% final concentration) or compound (1μM or 5μM final concentration) and cell density was recorded in the Incucyte® life cell imager (Sartorius, Göttingen, Germany) every 4 hours over a period of 5 days. Growth curves were generated by monitoring confluence over time. Proliferative capacity of PNPLA3 I148M-expressing cells was compared to control cells, and the restoration of proliferative fitness was analyzed.

Hep3B cells = assay: Incucyte growth curves, Hep3B; format: cell-based, human; conditions: 1μM or 5μM; compared to DMSO
Description: as §1

`Cc1cccc(Cc2nc(C)c(C(=O)Nc3cc(O)ccc3Cl)s2)c1` [NUV-244] was tested. Which “time to half maximum effect of reduction of PNPLA3 I148M-tagRFP on lipid droplets” value (PNPLA3 I148M-tagRFP) did it give?
Its value is “approximately 2 h”.

What about the “ΔTm PNPLA3 I148M” value (PNPLA3 I148M) of the same molecule?
Its value is 5.82 °C.

And the “proliferative fitness of Huh7 cells expressing PNPLA3 I148M” value [1]?
The value was “restored”.

What about the “effect on proliferative capacity, Hep3B” value (Hep3B cells) of the same molecule?
The value was “no effects”.
